Measurements reported in US12398154B2, “Azaquinazoline pan-KRas inhibitors” (Mirati Therapeutics, Inc., priority 2020, dated 2025).

What was measured:
KRas G12R = KRas G12R (Homo sapiens, UniProt P01116, G12R); test: biochemical;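 also: TR-FRET displacement assay of compound binding to KRas, read after one hour at room temperature, potency from a four-parameter fit of percent-of-control values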
Experimental: (§2) The ability of a compound to bind to KRas was measured using a TR-FRET displacement assay. […] After a 60-minute incubation at room temperature, the reaction was measured using a BMG LABTECH CLARIO star Plus via TR-FRET. […] The POC values were fit to a 4-parameter IC50 equation and the IC50 value reported.

[1] = tested on: phospho-ERK in NCI-H460 (Q61H) cells; test: Inhibition of KRas-mediated phosphorylation of ERK (in-cell western); format: cell-based; conditions: Homo sapiens, NCI-H460, 3 h, 3 hours compound, phospho-ERK normalized to GAPDH
Outline: (§1)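 Cells treated 3 h with compounds (0.5% DMSO), fixed in formaldehyde and methanol-permeabilized. In-cell western for phospho-ERK (Thr202/Tyr204) normalized to GAPDH, as % of DMSO control; IC50 by 4-parameter fit.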

[2] = tested on: phospho-ERK in NCI-H358 (G12C) cells; test: as above; format: cell-based; conditions: Homo sapiens, 3 hours compound, phospho-ERK normalized to GAPDH
Outline: as §1

[3] = tested on: phospho-ERK in PSN-1 (G12R) cells; test: as above; format: cell-based; conditions: Homo sapiens, PSN1, 3 hours compound, phospho-ERK normalized to GAPDH
Outline: as §1

[4] = tested on: phospho-ERK in MKN1 (WTdep) cells; test: as above; format: cell-based; conditions: Homo sapiens, MKN-1, 3 hours compound, phospho-ERK normalized to GAPDH
Outline: as §1

[5] = tested on: phospho-ERK in AsPC-1 (G12D) cells; test: as above; format: cell-based; conditions: Homo sapiens, ASPC1, 3 h, 3 hours compound, phospho-ERK normalized to GAPDH
Outline: as §1

[6] = tested on: phospho-ERK in NCI-H727 (G12V) cells; test: as above; format: cell-based; conditions: Homo sapiens, NCI-H727, 3 h, 3 hours compound, phospho-ERK normalized to GAPDH
Outline: as §1

[7] = tested on: phospho-ERK in HCT116 (G13D) cells; test: as above; format: cell-based; conditions: Homo sapiens, HCT-116, 3 hours compound, phospho-ERK normalized to GAPDH
Outline: as §1

[8] = tested on: phospho-ERK in A549 (G12S) cells; test: as above; format: cell-based; conditions: Homo sapiens, 3 hours compound, phospho-ERK normalized to GAPDH
Outline: as §1

KRas G12D = KRas G12D (Homo sapiens, UniProt P01116, G12D); test: biochemical;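 also: TR-FRET displacement binding assay on KRas, read after a one-hour incubation at room temperature, IC50 fitted from percent-of-control values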
Chain of KRas G12D (P01116 1-169 isoform P01116-2 G12D): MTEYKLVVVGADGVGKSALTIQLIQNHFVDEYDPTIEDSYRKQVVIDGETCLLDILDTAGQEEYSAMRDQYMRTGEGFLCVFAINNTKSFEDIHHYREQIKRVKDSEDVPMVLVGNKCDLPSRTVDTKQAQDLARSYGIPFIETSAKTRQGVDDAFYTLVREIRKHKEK
Experimental: as §2

KRas G12V = KRas G12V (Homo sapiens, UniProt P01116, G12V); test: biochemical;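 also: KRas binding measured by TR-FRET displacement at room temperature, IC50 fitted from percent of control values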
Chain of KRas G12V (P01116 1-169 isoform P01116-2 G12V): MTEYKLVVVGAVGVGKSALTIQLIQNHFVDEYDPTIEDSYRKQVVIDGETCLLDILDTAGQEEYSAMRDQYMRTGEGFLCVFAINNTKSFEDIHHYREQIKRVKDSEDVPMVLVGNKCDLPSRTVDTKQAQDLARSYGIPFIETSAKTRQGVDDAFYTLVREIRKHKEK
Experimental: as §2

Chain of KRas G12R (P01116 1-169 isoform P01116-2 G12R): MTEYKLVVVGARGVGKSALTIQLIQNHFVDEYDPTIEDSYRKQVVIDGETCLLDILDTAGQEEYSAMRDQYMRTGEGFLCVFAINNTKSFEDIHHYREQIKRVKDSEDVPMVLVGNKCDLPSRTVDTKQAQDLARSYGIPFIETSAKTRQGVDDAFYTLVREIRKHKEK

Row | Structure (SMILES) | IC50 (KRas G12R) | IC50 (KRas G12D) | IC50 (KRas G12V) | IC50 [1] | IC50 [2] | IC50 [3] | IC50 [4] | IC50 [5] | IC50 [6] | IC50 [7] | IC50 [8]
1 | CCc1c(F)ccc2cc(O)cc(-c3ncc4c(NCc5cn[nH]c5)nc(OC[C@@]56CCCN5C[C@H](F)C6)nc4c3F)c12 [Example 160, 4-(4-(((1H-pyrazol-4-yl)methyl)amino)-8-fluoro-2-(((2R,7aS)-2-fluorohexahydro-1H-pyrrolizin-7a-yl)methoxy)pyrido[4,3-d]pyrimidin-7-yl)-5-ethyl-6-fluoronaphthalen-2-ol] | ≤ 2 nM | 15 nM | ≤ 2 nM | 471 nM | 149 nM | ≥ 10000 nM | 146 nM | 5520 nM | 727 nM | 1600 nM | 974 nM
2 | CCc1c(F)ccc2cc(O)cc(-c3ncc4c(N5CCCC6(CNC(=O)C6)C5)nc(OC[C@@]56CCCN5C[C@H](F)C6)nc4c3F)c12 (stereo partly shown) [Example 38] | ≤ 2 nM | ≤ 2 nM | ≤ 2 nM | 573 nM | 324 nM | 7620 nM | 143 nM | 966 nM | 1190 nM | 814 nM | 3270 nM
3 | CCc1c(F)ccc2cc(O)cc(-c3ncc4c(N5CCN(c6ncccc6C#N)CC5)nc(OC[C@@]56CCCN5C[C@H](F)C6)nc4c3F)c12 [Example 155] | 3 nM | 118 nM | 4 nM | 399 nM | 329 nM | ≥ 10000 nM | 196 nM | 1720 nM | 2670 nM | ≥ 10000 nM | ≥ 10000 nM
4 | CCc1c(F)ccc2cc(O)cc(-c3ncc4c(NCc5ncc6cc[nH]c6n5)nc(OC[C@@]56CCCN5C[C@H](F)C6)nc4c3F)c12 [Example 142, 4-(4-(((7H-pyrrolo[2,3-d]pyrimidin-2-yl)methyl)amino)-8-fluoro-2-(((2R,7aS)-2-fluorohexahydro-1H-pyrrolizin-7a-yl)methoxy)pyrido[4,3-d]pyrimidin-7-yl)-5-ethyl-6-fluoronaphthalen-2-ol] | ≤ 2 nM | 14 nM | ≤ 2 nM | 212 nM | 78 nM | ≥ 10000 nM | 45 nM | 2870 nM | ≥ 10000 nM | 6960 nM | ≥ 10000 nM
5 | CCc1c(F)ccc2cc(O)cc(-c3ncc4c(N5CCCC(c6ncn[nH]6)C5)nc(OC[C@@]56CCCN5C[C@H](F)C6)nc4c3F)c12 (stereo partly drawn) [Example 145, 4-(4-(3-(1H-1,2,4-triazol-5-yl)piperidin-1-yl)-8-fluoro-2-(((2R,7aS)-2-fluorohexahydro-1H-pyrrolizin-7a-yl)methoxy)pyrido[4,3-d]pyrimidin-7-yl)-5-ethyl-6-fluoronaphthalen-2-ol] | 3 nM | 9 nM | 6 nM | 847 nM | 379 nM | ≥ 10000 nM | 258 nM | ≥ 10000 nM | ≥ 10000 nM | ≥ 10000 nM | ≥ 10000 nM
6 | Oc1cc(-c2ncc3c(N4CCCC(c5ncn[nH]5)C4)nc(OCC45CCCN4CCC5)nc3c2F)c2c(F)c(F)ccc2c1 (stereo not shown) [Example 137, 4-(4-(3-(1H-1,2,4-triazol-5-yl)piperidin-1-yl)-8-fluoro-2-((hexahydro-1H-pyrrolizin-7a-yl)methoxy)pyrido[4,3-d]pyrimidin-7-yl)-5,6-difluoronaphthalen-2-ol] | 3 nM | ≤ 2 nM | ≤ 2 nM | ≥ 10000 nM | 2040 nM | ≥ 10000 nM | ≥ 10000 nM | ≥ 10000 nM | ≥ 10000 nM | ≥ 10000 nM | ≥ 10000 nM
7 | Cc1n[nH]c(C2CCCN(c3nc(OCC45CCCN4CCC5)nc4c(F)c(-c5cc(O)cc6ccc(F)c(F)c56)ncc34)C2)n1 (stereo not shown) [Example 138, 5,6-difluoro-4-(8-fluoro-2-((hexahydro-1H-pyrrolizin-7a-yl)methoxy)-4-(3-(3-methyl-1H-1,2,4-triazol-5-yl)piperidin-1-yl)pyrido[4,3-d]pyrimidin-7-yl)naphthalen-2-ol] | 5 nM | 12 nM | 5 nM | ≥ 10000 nM | ≥ 10000 nM | ≥ 10000 nM | ≥ 10000 nM | ≥ 10000 nM | ≥ 10000 nM | ≥ 10000 nM | ≥ 10000 nM

Further lines, with some results ahead:

Row | IC50 (KRas G12R) | IC50 (KRas G12D) | IC50 (KRas G12V) | Structure (SMILES) | IC50 [1] | IC50 [2] | IC50 [3] | IC50 [4] | IC50 [5] | IC50 [6] | IC50 [7] | IC50 [8]
8 | 10 nM | 175 nM | 8 nM | CCc1c(F)ccc2cc(O)cc(-c3ncc4c(Nc5ccon5)nc(OC[C@@]56CCCN5C[C@H](F)C6)nc4c3F)c12 [Example 152, 5-ethyl-6-fluoro-4-(8-fluoro-2-(((2R,7aS)-2-fluorohexahydro-1H-pyrrolizin-7a-yl)methoxy)-4-(isoxazol-3-ylamino)pyrido[4,3-d]pyrimidin-7-yl)naphthalen-2-ol] | ≥ 10000 nM | ≥ 10000 nM | ≥ 10000 nM | 6290 nM | ≥ 10000 nM | ≥ 10000 nM | ≥ 10000 nM | ≥ 10000 nM
9 | 30 nM | 108 nM | 20 nM | CCc1c(F)ccc2cc(O)cc(-c3ncc4c(NCCCc5ccncc5)nc(OC[C@@]56CCCN5C[C@H](F)C6)nc4c3F)c12 [Example 176, 5-ethyl-6-fluoro-4-(8-fluoro-2-(((2R,7aS)-2-fluorohexahydro-1H-pyrrolizin-7a-yl)methoxy)-4-((3-(pyridin-4-yl)propyl)amino)pyrido[4,3-d]pyrimidin-7-yl)naphthalen-2-ol] | 3510 nM | 1250 nM | ≥ 10000 nM | 701 nM | ≥ 10000 nM | 3950 nM | ≥ 10000 nM | ≥ 10000 nM
10 | 3 nM | 4 nM | 3 nM | CCc1c(F)ccc2cc(O)cc(-c3ncc4c(N5CCCC(C(N)=O)C5)nc(OC[C@@]56CCCN5C[C@H](F)C6)nc4c3F)c12 (stereo partly shown) [Example 147] | 383 nM | 79 nM | ≥ 10000 nM | 65 nM | ≥ 10000 nM | ≥ 10000 nM | ≥ 10000 nM | 1950 nM
11 | 3 nM | 31 nM | 3 nM | CCc1c(F)ccc2cc(O)cc(-c3ncc4c(NCCCc5cc[nH]n5)nc(OC[C@@]56CCCN5C[C@H](F)C6)nc4c3F)c12 [Example 135, 4-(4-((3-(1H-pyrazol-3-yl)propyl)amino)-8-fluoro-2-(((2R,7aS)-2-fluorohexahydro-1H-pyrrolizin-7a-yl)methoxy)pyrido[4,3-d]pyrimidin-7-yl)-5-ethyl-6-fluoronaphthalen-2-ol] | 647 nM | 37 nM | ≥ 10000 nM | 53 nM | 2060 nM | ≥ 10000 nM | 3270 nM | 2460 nM
